Assay in all cases: NCI anticancer screen, dose series, 48 h
The subject of experiment [1] is A498.
In experiment [2] the test system is A549.
Experiment [3] deals with BT-549.
In experiment [4] the test system is EKVX.
In experiment [5] the test system is HOP-92.
Experiment [6] relates to HT-29.
Experiment [7] has as its system K562.
Experiment [8] relates to M14.
Experiment [9] deals with MCF7.
For experiment [10], the system named is MDA-MB-231.
Experiment [11] relates to Malme-3M.
Experiment [12] deals with NCI-H460.
Experiment [13] concerns OVCAR-4.
Experiment [14] concerns SK-MEL-2.
Experiment [15] concerns SK-OV-3.
The subject of experiment [16] is SNB-75.
The test system of experiment [17] is SR.
Experiment [18] concerns SW-620.
In experiment [19] the test system is UO-31.
Experiment [20] deals with HCC 2998.

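Protocol summary: plate cells (96-well), add compound at 5 concentrations, incubate 48 h, interpolate endpoints linearly. GI50: concentration for 50% inhibition of growth.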 Activity calls are given as the source filed them. No stated cut-off is given here; in the data, active = GI50 up to about 1.1 µM and inactive = higher.

As to `CC12CC(=O)C3C(CCC4=CC(=O)CCC43C)C1CC=C2CC(=O)O` (stereo unspecified), the GI50 in [1], in experiment [2], in experiment [3], in experiment [4], in experiment [5] and in [6] was > 100 µM (inactive) in each case. In addition, the GI50 in experiment [7], in experiment [8], in experiment [9], in [10], in experiment [11] and in experiment [12] was > 100 µM (inactive) each time. The GI50 in experiment [13], in [14], in [15], in [16], in experiment [17] and in experiment [18] was > 100 µM (inactive) each time. The GI50 in [19] was > 100 µM (inactive).
As for `Cc1c(OCc2cccc3ccccc23)ccc2c(=O)cc(SCCN3CCOCC3)oc12`, the GI50 in [1], in experiment [2], in [3], in [4], in experiment [20] and in [5] was > 100 µM (inactive) throughout. In addition, the GI50 in experiment [6] was > 100 µM (inactive); in experiment [7], > 100 µM (inactive); in experiment [8], > 100 µM (inactive); in experiment [9] it was > 100 µM (inactive); in experiment [10] it was > 100 µM (inactive); in [12] it was 6.53 µM (inactive). Further, the GI50 is 38.5 µM (inactive) in [13]; > 100 µM (inactive) in [14]; > 100 µM (inactive) in [16]; > 100 µM (inactive) in experiment [17]; > 100 µM (inactive) in experiment [18]; > 100 µM (inactive) in [19].
Take `COC(=O)/C=C(C)/C=C\COC1CCCCO1` (stereo unspecified): the GI50 in experiment [1], in experiment [2], in [3], in experiment [4], in [20] and in [7] was > 100 µM (inactive) each time. The GI50 in experiment [8], in experiment [9], in experiment [10], in experiment [11], in experiment [12] and in [13] was > 100 µM (inactive) in each case. Also, the GI50 in experiment [14], in experiment [15], in experiment [16], in experiment [17], in experiment [18] and in experiment [19] was > 100 µM (inactive) throughout.
Turning to `NNC(=O)c1cc([N+](=O)[O-])ccc1NC(=O)C12CC3CC(CC(C3)C1)C2`, the GI50 is 17.8 µM (inactive) in experiment [2]; 26.6 µM (inactive) in [3]; 7.05 µM (inactive) in experiment [4]; 10.5 µM (inactive) in experiment [20]; 12.9 µM (inactive) in experiment [5]; 25.8 µM (inactive) in experiment [6]. The GI50 in experiment [7] is 7.48 µM (inactive); in experiment [8], 13 µM (inactive); in experiment [9], 23.1 µM (inactive); in experiment [10] it was 5.01 µM (inactive); in [11], 16.5 µM (inactive); in experiment [12], 18.1 µM (inactive). The GI50 in experiment [13] was 2.62 µM (inactive); in [15] it was 2.7 µM (inactive); in experiment [17], 3.43 µM (inactive); in experiment [18], 7.74 µM (inactive); in experiment [19], 7.98 µM (inactive).
In the case of `COc1cc(/C=N\O)cc(/C=N/O)c1O`, the GI50 was 43.8 µM (inactive) in experiment [1]; > 100 µM (inactive) in experiment [2]; 45.2 µM (inactive) in experiment [3]; 60.3 µM (inactive) in experiment [4]; 21.1 µM (inactive) in experiment [5]; 39.4 µM (inactive) in experiment [6]. The GI50 in experiment [7] is 71.9 µM (inactive); in [8] it was 20 µM (inactive); in experiment [9], 60.8 µM (inactive); in experiment [10], 47.3 µM (inactive); in [11] it was 27.7 µM (inactive); in experiment [12] it was 40.2 µM (inactive). Also, the GI50 in experiment [13] is > 100 µM (inactive); in experiment [14] it was 25.8 µM (inactive); in experiment [15], 30.3 µM (inactive); in experiment [16] it was 80.7 µM (inactive); in [17] it was 26.3 µM (inactive); in experiment [18] it was 73.1 µM (inactive). In addition, the GI50 in experiment [19] was 5.94 µM (inactive).
For the compound `CCCCCCCCC[C@@H]1C[C@@H]2CCC3C(C(=O)OC)=C(C)N=C(N1)N32` (stereo partly specified), the GI50 was 12.3 µM (inactive) in [2]; 10.6 µM (inactive) in experiment [3]; 10.5 µM (inactive) in experiment [4]; 2.86 µM (inactive) in experiment [20]; 10 µM (inactive) in experiment [5]; 4.25 µM (inactive) in experiment [6]. For the same compound, the GI50 is 5.25 µM (inactive) in experiment [7]; 5.46 µM (inactive) in experiment [8]; 3.72 µM (inactive) in [9]; 5.13 µM (inactive) in experiment [10]; 10.5 µM (inactive) in experiment [11]; 3.65 µM (inactive) in [12]. In addition, the GI50 was 6.93 µM (inactive) in experiment [13]; 11.1 µM (inactive) in experiment [14]; 10.6 µM (inactive) in [15]; 5.71 µM (inactive) in experiment [16]; 3.91 µM (inactive) in [17]; 15.6 µM (inactive) in [18]. Moreover, in [19], the GI50 was 15.3 µM (inactive).
With `N#CC1CNC(N)NC1N` (stereo unspecified), the GI50 in [1], in experiment [2], in experiment [3], in experiment [4], in [5] and in [6] was > 100 µM (inactive) in each case. Besides, the GI50 in experiment [7] is 64.1 µM (inactive); in experiment [8], > 100 µM (inactive); in experiment [9], > 100 µM (inactive); in experiment [10], > 100 µM (inactive); in experiment [11], > 100 µM (inactive); in experiment [12], > 100 µM (inactive). Further, the GI50 in experiment [13] was > 100 µM (inactive); in experiment [14] it was > 100 µM (inactive); in experiment [15] it was > 100 µM (inactive); in [16], > 100 µM (inactive); in experiment [17], 34 µM (inactive); in experiment [18] it was > 100 µM (inactive).
As for `COc1ccc(/N=C2/C(=N/c3ccc(OC)cc3)N(c3ccccc3)C(=S)N2N=C=C2Sc3ccccc3N2C)cc1`, the GI50 was > 100 µM (inactive) in experiment [2]; > 100 µM (inactive) in experiment [3]; > 100 µM (inactive) in experiment [4]; > 100 µM (inactive) in experiment [20]; 47.3 µM (inactive) in experiment [5]; > 100 µM (inactive) in [6]. In addition, the GI50 was > 100 µM (inactive) in [7]; 57.4 µM (inactive) in [8]; > 100 µM (inactive) in experiment [9]; 25.5 µM (inactive) in [10]; > 100 µM (inactive) in [11]; > 100 µM (inactive) in experiment [12]. For the same compound, the GI50 in experiment [14], in experiment [15], in experiment [17], in experiment [18] and in [19] was > 100 µM (inactive) in each case.
For the compound `O=[N+]([O-])/C=C/c1ccc2ccccc2c1`, the GI50 in experiment [1] is 13 µM (inactive); in [2], 8.05 µM (inactive); in experiment [3] it was 2.74 µM (inactive); in [4], 22.7 µM (inactive); in experiment [5], 6.62 µM (inactive); in [6] it was 2.53 µM (inactive). Moreover, the GI50 in experiment [7] was 3.78 µM (inactive); in experiment [8], 3.99 µM (inactive); in experiment [9], 1.86 µM (inactive); in experiment [10], 3.82 µM (inactive); in experiment [11], 15.6 µM (inactive); in [12], 6.81 µM (inactive). Besides, the GI50 in [13] was 13.3 µM (inactive); in [14] it was 22.6 µM (inactive); in [15], 2.57 µM (inactive); in experiment [16], 2 µM (inactive); in experiment [17], 0.436 µM (active); in experiment [18], 2.47 µM (inactive). The GI50 in [19] is 7.41 µM (inactive).
Consider `CC(=O)OC[C@H]1O[C@@H](O[C@H]2[C@H](OC(C)=O)C=CO[C@@H]2COC(C)=O)C(OC(C)=O)[C@H]2OC(C)(C)O[C@H]21` (stereo partly specified), for which the GI50 in [2] is > 100 µM (inactive); in experiment [3] it was 36.6 µM (inactive); in experiment [4], > 100 µM (inactive); in [20], > 100 µM (inactive); in [5], 52.8 µM (inactive); in [6] it was > 100 µM (inactive). Further, the GI50 in [7], in experiment [8], in experiment [9], in [10], in experiment [11] and in experiment [12] was > 100 µM (inactive) in each case. The GI50 in [13] is > 100 µM (inactive); in experiment [15] it was > 100 µM (inactive); in [16], 30.5 µM (inactive); in experiment [17], 43.3 µM (inactive); in [18] it was 64.3 µM (inactive); in experiment [19] it was > 100 µM (inactive).
For `c1ccc2c(Cc3c[nH]c4ccccc34)c[nH]c2c1` [ARUNDINE], the GI50 in experiment [1] is 38.8 µM (inactive); in [2] it was 20.8 µM (inactive); in [3] it was 18.2 µM (inactive); in [4] it was 14.4 µM (inactive); in experiment [5] it was 16 µM (inactive); in experiment [6], 15.2 µM (inactive). The GI50 in experiment [7] is 19.6 µM (inactive); in [8], 16.6 µM (inactive); in experiment [9], > 100 µM (inactive); in experiment [10], 14.3 µM (inactive); in [11], 31.3 µM (inactive); in [12] it was 19 µM (inactive). In addition, the GI50 was 17.8 µM (inactive) in experiment [13]; 22.8 µM (inactive) in experiment [14]; 23.7 µM (inactive) in [15]; 17.4 µM (inactive) in [16]; 12.4 µM (inactive) in experiment [17]; 20.1 µM (inactive) in [18]. The GI50 in experiment [19] was 14.1 µM (inactive).

The values above are taken from ChEMBL document CHEMBL1201862, “PubChem BioAssay data set” (2004).
